Test results reported in patent publication US3954780A, “Propionic acid derivatives” (Innothera, priority 1970, dated 1976).
In brackets after ≈: the same amount, converted by molar mass. Counter-ions that a name gives are not always drawn. Like-named read-outs stand apart in the source and are kept apart here.

Assays:
[1] = test system: isolated ileum of the guinea-pig; assay: Spasmolytic activity of atropinic type, acetylcholine chloride contracture; details: Tyrode 33°; for EC50: Cavia porcellus, read-out: Spasmolytic activity Atropinic type DE 50 (converted)
From the text: b. To show activity of atropinic type the contracturant used is acetylcholine chloride acting on the isolated ileum of the guinea-pig. […]

isolated rat duodenum = assay: Spasmolytic activity of papaverinic type, barium chloride contracture; details: Tyrode 38°; for EC50: read-out: Spasmolytic activity Papaverinic type DE 50 (converted)
Procedure: a. To show activity of the papaverinic type, the contracturant used is barium chloride acting on the isolated rat duodenum.
The average activity of the substances studied has been effected by determining graphically their DE 30 and DE 50 these being expressed in μg for 20 ml of bath.

[2] = Acute toxicity in the mouse (DL50, method of Miller and Tainter); details: in vivo, read-out: DL 50 (the source's name)
From the text: The acute toxicity of the amine ester derivatives of β-[ benzo(b)thienyl-3]propionic acid have been studied in the mouse by intraperitoneal and oral routes, the products being administered in an isotonic solution of sodium chloride, 0.9%, or in suspension in a dilute aqueous solution of carboxymethyl cellulose.
The calculation of the DL50 has been effected according to the method of MILLER and TAINTER (MILLER. L.C., TAINTER M.L. - Proc. Soc. Exptl. Biol. Med. 1944-57-261,264).

skin reflex = assay: Local anaesthetic activity, conduction anaesthesia (method of Moukhtar); type: in vivo; details: for average number of stimulations for the derivative studied n: intradermal 0.20 ml
From the text: The method of MOUKHTAR has been chosen to show the activity of the derivatives studied on conduction anaesthesia (A. MOUKHTAR, C.R. Soc. Biol. 1909-66-187,189).
The reference local anaesthetic substance used in the tests has in each case been procaine hydrochloride in 0.5% solution in an 0.9% isotonic solution of NaCl. The three concentrations used to study the local anaesthetic activity of the new derivatives are 0.50, 0.25 and 0.10%, the vehicle being the isotonic 0.9% solution of NaCl.
The average anaesthetic activity of the substances chosen is expressed comparatively to that of the reference product chosen, by calculating the ratio of the average number n of the stimulations necessary to obtain the appearance of the skin reflex in the case of the derivatives studied, to the average number (n') of the stimulation determined for the reference substance.
The procaine hydrochloride and the derivatives studied are administered by the intradermal route at the rate of 0.20 ml per injection.

[3] = test system: acute oedema provoked by serotonine in the rat; assay: Anti-serotonic activity, serotonine-induced acute paw oedema; type: in vivo; details: 30 minutes before serotonine
Procedure: This has been researched in the rat by the technique of the acute oedema localised in the metatarsal region, provoked by the injection of 0.05 ml of a 0.01% solution of serotonine (sulphate of 5-hydroxy-tryptamine-creatinine) in an isotonic solution of sodium chloride.
The plethysmometric measurements of the paw having been subjected to the injection have been effected before, and at different times after, the injection of the serotonine.
The derivatives to be studied have been administered by the oral route 30 minutes before the serotonine.

[4] = derivative 0.10 g/100 ml vs procaine hydrochloride 0.50 g/100 ml
[5] = derivative 0.25 g/100 ml vs procaine hydrochloride 0.50 g/100 ml
[6] = derivative 0.50 g/100 ml vs procaine hydrochloride 0.50 g/100 ml

SMILES | EC50 [1] | Spasmolytic activity Atropinic type DE 30 [1] | Spasmolytic activity Papaverinic type DE 30 (isolated rat duodenum) | EC50 (isolated rat duodenum) | LD50 ([2]; ip) | average number of stimulations for the derivative studied n (skin reflex; 0.10 g/100 ml) | average number of stimulations for the derivative studied n (skin reflex; 0.25 g/100 ml) | average number of stimulations for the derivative studied n (skin reflex; 0.50 g/100 ml) | local anaesthetic activity n/n' (skin reflex; [4]) | local anaesthetic activity n/n' (skin reflex; [5]) | local anaesthetic activity n/n' (skin reflex; [6]) | LD50 ([2]; v.o. (oral) route) | average percentage reduction in oedema after 1 hour ([3]; 50 mg/kg oral) | average percentage reduction in oedema after 2 hours ([3]; 50 mg/kg oral) | average percentage reduction in oedema after 1 hour ([3]; 30 mg/kg oral) | average percentage reduction in oedema after 2 hours ([3]; 30 mg/kg oral)
C=CCC(Cc1csc2ccccc12)C(=O)OCCN1CCCCCC1 (stereo not drawn) [Compound 5] | 9 µg/mL (≈ 24.2 µM) | 95 μg/20 ml of bath | 13.0 μg for 20 ml of bath | 1 µg/mL (≈ 2.69 µM) | 150 ± 17 mg/kg |  |  |  |  |  |  |  |  |  |  | 
C=CCC(Cc1csc2ccccc12)C(=O)OCCCN(C)C (stereo not drawn) [Compound 6] |  |  | 9.0 μg for 20 ml of bath | 1 µg/mL (≈ 3.02 µM) | ~120 mg/kg |  |  |  |  |  |  |  |  |  |  | 
C=CCC(Cc1csc2ccccc12)C(=O)OCCCN(CC)CC (stereo not drawn) [Compound 7, citrate of the N,N-diethylamino propyl esters of x-allyl-β-[benzo(b)thienyl-3]propionic acid] | 16.2 µg/mL | 170 μg/20 ml of bath | 2.2 μg for 20 ml of bath | 0.225 µg/mL | 210 ± 10 mg/kg | 12.2 | 18.9 | 29.5 | 0.3 | 0.6 | 1.0 | 1290 ± 80 mg/kg | 27.6% | 36.6% |  | 
C=CCC(Cc1csc2ccccc12)C(=O)OC(C)CN1CCCC1 (stereo not drawn) [Compound 11] |  |  | 4.0 μg for 20 ml of bath | 0.6 µg/mL (≈ 1.68 µM) | 270 ± 59 mg/kg |  |  |  |  |  |  |  |  |  |  | 
O=C(OCCN1CCCC1)C(Cc1cccs1)Cc1csc2ccccc12 (stereo not drawn) [Compound 37] | 4 µg/mL (≈ 10 µM) | 50 μg/20 ml of bath | 6.8 μg for 20 ml of bath | 0.65 µg/mL (≈ 1.63 µM) | 320 ± 21 mg/kg |  |  |  |  |  |  |  |  |  |  | 
CCN(CC)CCCOC(=O)C(Cc1cccs1)Cc1csc2ccccc12 (stereo not drawn) [Compound 42] | 15 µg/mL (≈ 36.1 µM) | 190 μg/20 ml of bath | 3.5 μg for 20 ml of bath | 0.85 µg/mL (≈ 2.05 µM) | 240 ± 18 mg/kg |  |  |  |  |  |  |  |  |  |  | 
O=C(OCCCN1CCCC1)C(Cc1cccs1)Cc1csc2ccccc12 (stereo not drawn) [Compound 43] |  |  | 7.0 μg for 20 ml of bath | 1.25 µg/mL (≈ 3.02 µM) | 160 ± 11 mg/kg |  |  |  |  |  |  |  |  |  |  | 
O=C(OCCN1CCCC1)C(Cc1csc2ccccc12)CC1CCCO1 (stereo not drawn) [Compound 49] | 1.4 µg/mL (≈ 3.61 µM) | 21 μg/20 ml of bath | 1.6 μg for 20 ml of bath | 0.185 µg/mL (≈ 0.477 µM) | 140 ± 9 mg/kg |  |  |  |  |  |  | ~650 mg/kg |  |  | 17.8% | 12.6%
O=C(OCCN1CCCCC1)C(Cc1csc2ccccc12)CC1CCCO1 (stereo not drawn) [Compound 50] | 3.5 µg/mL (≈ 8.72 µM) | 48 μg/20 ml of bath | 5.0 μg for 20 ml of bath | 0.6 µg/mL (≈ 1.49 µM) | 122 ± 12 mg/kg |  |  |  |  |  |  |  |  |  |  | 
O=C(OCCN1CCCCCC1)C(Cc1csc2ccccc12)CC1CCCO1 (stereo not drawn) [Compound 51] | 4.75 µg/mL (≈ 11.4 µM) | 61 μg/20 ml of bath | 3.5 μg for 20 ml of bath | 0.325 µg/mL (≈ 0.782 µM) | 121 ± 10 mg/kg |  |  |  |  |  |  |  |  |  |  | 
CCN(CC)CCCOC(=O)C(Cc1csc2ccccc12)CC1CCCO1 (stereo not drawn) [Compound 53] | 7 µg/mL (≈ 17.3 µM) | 75 μg/20 ml of bath | 4.5 μg for 20 ml of bath | 0.4 µg/mL (≈ 0.991 µM) | 145 ± 9 mg/kg | 14.2 | 29.1 | 33.2 | 0.5 | 1.0 | 1.2 | 1150 ± 78 mg/kg | 40.6% | 42.9% | 19.4% | 15.1%
O=C(OCCCN1CCCC1)C(Cc1csc2ccccc12)CC1CCCO1 (stereo not drawn) [Compound 54] | 4.5 µg/mL (≈ 11.2 µM) | 52 μg/20 ml of bath | 9.5 μg for 20 ml of bath | 0.6 µg/mL (≈ 1.49 µM) | 100 ± 12 mg/kg | 16.7 | 25.7 | 31.4 | 0.6 | 0.8 | 1.1 | 400 ± 27 mg/kg | 34.9% | 45.0% | 22.4% | 16.0%
O=C(OCCCN1CCCCC1)C(Cc1csc2ccccc12)CC1CCCO1 (stereo not drawn) [Compound 55] |  |  | 3.5 μg for 20 ml of bath | 0.375 µg/mL (≈ 0.902 µM) | 85 ± 12 mg/kg |  |  |  |  |  |  | ~450 mg/kg | 40.7% | 39.8% | 12.3% | 11.3%
